Measured values taken from US12209102B2, “Heterocyclic compounds and uses thereof” (Kumquat Biosciences Inc., priority 2022, dated 2025).
pIC50: −log10 of the molar value.

Tests used:
[1] = tested on: GP2D cells; test: Ras cellular assay, growth of cells with K-Ras G12D mutation (CellTiter-Glo); assay type: cell-based; details: cell growth, Example 9, G12D mutation, read-out: IC50 against GP2D cells
[2] = biological target: T1, K-Ras G12V (Homo sapiens, UniProt P01116, G12V); test: HTRF resonance energy transfer assay, K-Ras G12V / SOS1 interaction; assay type: biochemical; details: HTRF assay of Example 5; read-out: IC50 against K-Ras G12V
T1 construct: made in house; host or cells: E. coli BL21 (DE3)
Outline: (§1)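 Buffer about 5 mM HEPES pH 7.4 with ~150 mM NaCl, ~1 mM DTT, 0.05% BSA, 0.0025% (v/v) Igepal. Protein constructs used at molarity matching the IC50 range studied (e.g. ~500 nM). FRET between tagged K-Ras and hSOS1 measured after short incubation.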

[3] = biological target: T2, K-Ras G12D (Homo sapiens, UniProt P01116, G12D); test: HTRF resonance energy transfer assay, K-Ras G12D / SOS1 interaction; assay type: biochemical; details: HTRF assay of Example 5; read-out: IC50 against K-Ras G12D
T2 construct: made in house; host or cells: E. coli BL21 (DE3)
Outline: as §1

[4] = tested on: A549 cells; test: Ras cellular assay, growth of cells with K-Ras G12S mutation (CellTiter-Glo); assay type: cell-based; details: Homo sapiens, cell growth, Example 9, G12S mutation, read-out: IC50 against A549 cells
Outline: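 Growth inhibition IC50 values come from four-parameter fits of CellTiter-Glo luminescence, read about 6 days after compound addition. G12S-mutant A549 cells (e.g. 800/well, RPMI-1640 + 10% heat-inactivated FBS) were plated in tissue-culture-treated or ultra-low-attachment 384-well format. Dosing began the following day with serial dilutions, e.g. 10 points, 3-fold.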

[5] = biological target: T3, K-Ras WT (Homo sapiens, UniProt P01116); test: HTRF resonance energy transfer assay, K-Ras WT / SOS1 interaction; assay type: biochemical; details: HTRF assay of Example 5; read-out: IC50 against K-Ras WT
T3 construct: made in house; host or cells: E. coli BL21 (DE3)
Outline: as §1

[6] = tested on: SW620 cells; test: Ras cellular assay, growth of cells with K-Ras G12V mutation (CellTiter-Glo); assay type: cell-based; details: Homo sapiens, SW-620; cell growth, Example 9, G12V mutation; read-out: IC50 against SW620 cells
Outline: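 IC50 values came from a four-parameter fit of CellTiter-Glo viability, read roughly 6 days after dosing with e.g. a 10-point threefold dilution series. G12V-mutant SW620 cells (e.g. 800 per well) had been plated the previous day in RPMI-1640/10% heat-inactivated FBS, on tissue culture-treated or ultra-low attachment plates.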

[7] = biological target: T4, K-Ras G12S (Homo sapiens, UniProt P01116, G12S); test: HTRF resonance energy transfer assay, K-Ras G12S / SOS1 interaction; assay type: biochemical; details: HTRF assay of Example 5; read-out: IC50 against K-Ras G12S
T4 construct: made in house; host or cells: E. coli BL21 (DE3)
Outline: as §1

T3 sequence (P01116 1-188 isoform P01116-2): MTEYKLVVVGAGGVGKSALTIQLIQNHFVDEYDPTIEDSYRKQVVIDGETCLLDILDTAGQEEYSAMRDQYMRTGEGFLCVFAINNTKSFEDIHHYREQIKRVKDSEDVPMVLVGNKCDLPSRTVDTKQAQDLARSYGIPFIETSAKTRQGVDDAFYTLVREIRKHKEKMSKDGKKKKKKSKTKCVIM
T4 sequence (P01116 1-188 isoform P01116-2 G12S): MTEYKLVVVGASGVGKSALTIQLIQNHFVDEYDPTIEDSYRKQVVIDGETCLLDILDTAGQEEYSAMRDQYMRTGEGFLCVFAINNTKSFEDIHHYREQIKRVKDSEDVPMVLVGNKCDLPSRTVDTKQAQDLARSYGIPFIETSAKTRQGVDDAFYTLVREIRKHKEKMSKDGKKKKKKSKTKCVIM
T1 sequence (P01116 1-188 isoform P01116-2 G12V): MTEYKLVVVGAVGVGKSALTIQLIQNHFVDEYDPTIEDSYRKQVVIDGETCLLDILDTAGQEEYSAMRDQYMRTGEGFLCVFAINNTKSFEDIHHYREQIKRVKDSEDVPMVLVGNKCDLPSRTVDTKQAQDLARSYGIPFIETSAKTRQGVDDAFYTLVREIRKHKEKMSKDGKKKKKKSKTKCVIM
T2 sequence (P01116 1-188 isoform P01116-2 G12D): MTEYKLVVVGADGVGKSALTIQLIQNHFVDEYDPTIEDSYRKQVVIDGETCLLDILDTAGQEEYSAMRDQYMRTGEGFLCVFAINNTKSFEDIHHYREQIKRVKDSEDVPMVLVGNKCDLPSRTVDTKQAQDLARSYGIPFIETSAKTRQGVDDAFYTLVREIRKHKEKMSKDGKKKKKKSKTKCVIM

pIC50 [2] | pIC50 [3] | pIC50 [4] | pIC50 [5] | pIC50 [6] | pIC50 [7] | Structure (SMILES) | pIC50 [1]
> 7.00 | > 7.00 | > 5.30 | > 7.00 | > 5.30 | > 7.00 | N#Cc1c(N)sc2c(F)ccc(-c3c(Cl)c4c5c(nc(OC[C@@]67CCCN6C[C@H](F)C7)nc5c3F)N(CC(F)F)C(CCO)CO4)c12 (single isomer, unassigned) [Compound 1049] | > 6.30
 |  | > 5.30 |  |  |  | CC[C@H]1COc2c(Cl)c(-c3ccc(F)c4sc(N)c(C#N)c34)c(F)c3nc(OC[C@@]45CCCN4C[C@H](F)C5)nc(c23)N1CC(F)F [Compound 877, 2-amino-4-((5S)-8-chloro-4-(2,2-difluoroethyl)-5-ethyl-10-fluoro-2-(((2R,7aS)-2-fluorotetrahydro-1H-pyrrolizin-7a(5H)-yl)methoxy)-5,6-dihydro-4H-[1,4]oxazepino[5,6,7-de]quinazolin-9-yl)-7-fluorobenzo[b]thiophene-3-carbonitrile] | > 6.30
 |  | > 5.30 |  | > 5.30 |  | N#Cc1c(N)sc2c(F)ccc(-c3c(Cl)c4c5c(nc(OC[C@@]67CCCN6C[C@H](F)C7)nc5c3F)N(CC(F)F)C(CO)CO4)c12 (stereo partly drawn) [Compound 1037, 2-amino-4-(8-chloro-4-(2,2-difluoroethyl)-10-fluoro-2-(((2R,7aS)-2-fluorotetrahydro-1H-pyrrolizin-7a(5H)-yl)methoxy)-5-(hydroxymethyl)-5,6-dihydro-4H-[1,4]oxazepino[5,6,7-de]quinazolin-9-yl)-7-fluorobenzo[b]thiophene-3-carbonitrile] | > 6.30
 | > 7.00 | > 5.30 | > 7.00 | > 5.30 | > 7.00 | N#Cc1c(N)sc2c(F)ccc(-c3c(Cl)c4c5c(nc(OC[C@@]67CCCN6C[C@H](F)C7)nc5c3F)N(CC(F)F)C(C(F)F)CO4)c12 (stereo partly drawn) [Compound 1105, 2-amino-4-(8-chloro-4-(2,2-difluoroethyl)-5-(difluoromethyl)-10-fluoro-2-(((2R,7aS)-2-fluorotetrahydro-1H-pyrrolizin-7a(5H)-yl)methoxy)-5,6-dihydro-4H-[1,4]oxazepino[5,6,7-de]quinazolin-9-yl)-7-fluorobenzo[b]thiophene-3-carbonitrile] | > 6.30

Continued, compound first:

Structure (SMILES) | pIC50 [2] | pIC50 [3] | pIC50 [4] | pIC50 [5] | pIC50 [6] | pIC50 [7] | pIC50 [1]
C[C@@H](O)[C@H]1COc2c(Cl)c(-c3ccc(F)c4sc(N)c(C#N)c34)c(F)c3nc(OC[C@@]45CCCN4C[C@H](F)C5)nc(c23)N1CCC(F)F (single isomer, unassigned) [Compound 820] | > 7.00 | > 7.00 | > 5.30 | > 7.00 | > 5.30 | > 7.00 | > 6.30
C=C[C@H]1COc2c(Cl)c(-c3ccc(F)c4sc(N)c(C#N)c34)c(F)c3nc(OC[C@@]45CCCN4C[C@H](F)C5)nc(c23)N1CC(F)F (single isomer, unassigned) [Compound 890] | > 7.00 | > 7.00 | > 5.30 | > 7.00 | > 5.30 | > 7.00 | > 6.30
CC(O)C1COc2c(Cl)c(-c3ccc(F)c4sc(N)c(C#N)c34)c(F)c3nc(OC[C@@]45CCCN4C[C@H](F)C5)nc(c23)N1CC(F)F (single isomer, unassigned) [Compound 899] | > 7.00 | > 7.00 | > 5.30 | > 7.00 | > 5.30 | > 7.00 | > 6.30
N#Cc1c(N)sc2c(F)ccc(-c3c(Cl)c4c5c(nc(OC[C@@]67CCCN6C[C@H](F)C7)nc5c3F)N(CC(F)F)CCC(CO)O4)c12 (single isomer, unassigned) [Compound 1207] | > 7.00 | > 7.00 | > 5.30 | > 7.00 | > 5.30 | > 7.00 | > 6.30
CCN1CCOc2c(Cl)c(-c3ccc(F)c4sc(N)c(C#N)c34)c(F)c3nc(OC[C@@]45CCCN4C[C@H](F)C5)nc1c23 [Compound 625, 2-amino-4-(8-chloro-4-ethyl-10-fluoro-2-(((2R,7aS)-2-fluorotetrahydro-1H-pyrrolizin-7a(5H)-yl)methoxy)-5,6-dihydro-4H-[1,4]oxazepino[5,6,7-de]quinazolin-9-yl)-7-fluorobenzo[b]thiophene-3-carbonitrile] | > 7.00 | > 7.00 | > 5.30 | > 7.00 |  | > 7.00 | > 6.30
N#Cc1c(N)sc2c(F)ccc(-c3c(Cl)c4c5c(nc(OC[C@@]67CCCN6C[C@H](F)C7)nc5c3F)N(CC3CC3C#N)CCO4)c12 (stereo partly drawn) [Compound 962, 2-amino-4-(8-chloro-4-((2-cyanocyclopropyl)methyl)-10-fluoro-2-(((2R,7aS)-2-fluorotetrahydro-1H-pyrrolizin-7a(5H)-yl)methoxy)-5,6-dihydro-4H-[1,4]oxazepino[5,6,7-de]quinazolin-9-yl)-7-fluorobenzo[b]thiophene-3-carbonitrile] |  |  | > 5.30 |  | > 5.30 |  | > 6.30
N#Cc1c(N)sc2c(F)ccc(-c3c(Cl)c4c5c(nc(OC[C@@]67CCCN6C[C@H](F)C7)nc5c3F)N(CC(F)F)CC(C(F)(F)F)O4)c12 (stereo partly drawn) [Compound 1008, 2-amino-4-(8-chloro-4-(2,2-difluoroethyl)-10-fluoro-2-(((2R,7aS)-2-fluorotetrahydro-1H-pyrrolizin-7a(5H)-yl)methoxy)-6-(trifluoromethyl)-5,6-dihydro-4H-[1,4]oxazepino[5,6,7-de]quinazolin-9-yl)-7-fluorobenzo[b]thiophene-3-carbonitrile] | > 7.00 | > 7.00 | > 5.30 | > 7.00 | > 5.30 |  | > 6.30
CC1Oc2c(Cl)c(-c3ccc(F)c4sc(N)c(C#N)c34)c(F)c3nc(OC[C@@]45CCCN4C[C@H](F)C5)nc(c23)N(CC(F)F)C1CC#N (stereo partly drawn) [Compound 1015, 2-amino-4-(8-chloro-5-(cyanomethyl)-4-(2,2-difluoroethyl)-10-fluoro-2-(((2R,7aS)-2-fluorotetrahydro-1H-pyrrolizin-7a(5H)-yl)methoxy)-6-methyl-5,6-dihydro-4H-[1,4]oxazepino[5,6,7-de]quinazolin-9-yl)-7-fluorobenzo[b]thiophene-3-carbonitrile] |  |  | > 5.30 |  | > 5.30 |  | > 6.30
N#Cc1c(N)sc2c(F)ccc(-c3c(Cl)c4c5c(nc(OC[C@@]67CCCN6C[C@H](F)C7)nc5c3F)N(C3CCCC3O)CCO4)c12 (stereo partly drawn) [Compound 1017, 2-amino-4-(8-chloro-10-fluoro-2-(((2R,7aS)-2-fluorotetrahydro-1H-pyrrolizin-7a(5H)-yl)methoxy)-4-(2-hydroxycyclopentyl)-5,6-dihydro-4H-[1,4]oxazepino[5,6,7-de]quinazolin-9-yl)-7-fluorobenzo[b]thiophene-3-carbonitrile] |  |  | > 5.30 |  |  |  | > 6.30
N#Cc1c(N)sc2c(F)ccc(-c3c(Cl)c4c5c(nc(OC[C@@]67CCCN6C[C@H](F)C7)nc5c3F)N(C3CC3)CCCO4)c12 [Compound 1204, 2-amino-4-(9-chloro-4-cyclopropyl-11-fluoro-2-(((2R,7aS)-2-fluorotetrahydro-1H-pyrrolizin-7a(5H)-yl)methoxy)-4,5,6,7-tetrahydro-[1,5]oxazocino[4,3,2-de]quinazolin-10-yl)-7-fluorobenzo[b]thiophene-3-carbonitrile] |  |  | > 5.30 |  | > 5.30 |  | > 6.30
